“Also recorded” adds a separate entry of the source. Read-outs that look alike come from different tables or passages of the source.
Columns and labels:
[1] = target: neuraminidase of influenza A/WSN/1933 (H1N1) virus (Influenza A virus, UniProt P03470); experiment: biochemical; type: biochemical
[2] = system: mRNA encoding IL-6 in LPS-activated RAW264.7 cells; type: cell-based
[3] = system: mRNA encoding TNF-α in LPS-activated RAW264.7 cells; type: cell-based
A/WSN/1933 (H1N1) virus = experiment: Cytopathic prevention assay in MDCK cells, H1N1; type: cell-based, influenza A/WSN/1933 (H1N1); conditions: for anti-influenza activity (in words): H1N1 virus
Experimental: The cytopathic prevention assays in Madin-Darby canine kidney (MDCK) cells were conducted to evaluate the anti-influenza activity. To our anticipation, the ZA-7-conjugates were potent inhibitors against human H1N1 virus (Table 2). The ZA-1-conjugates 9-12 also resumed anti-influenza activity in the cell-based assays. […] The anti-influenza activity could not be caused by caffeic esters alone. (Salomon, R. et al. Proc. Natl. Acad. Sci. U.S.A. 2007, 104, 12479)
The anti-flu activities of neuraminidase inhibitors were measured by the EC50 values that were the concentrations of NA inhibitor for 50% protection of the H1N1 CPE activities. Fifty μL diluted H1N1 at 100 TCID50 were mixed with equal volumes of NA inhibitors at varied concentrations. The mixtures were used to infect 100 μL of MDCK cells at 1×10^5 cells/mL in 96-wells. After 48 h incubation at 37° C. under 5.0% CO2, the cytopathic effects (CPE) were determined with CellTiter 96® AQueous Non-Radioactive Cell Proliferation Assay reagent as described above. Inhibitor EC50 value were determined by fitting the curve of percent CPE versus the concentrations of NA inhibitor using Graph Pad Prism 4.

[4] = system: influenza A/Cal/07/2009 H1N1; parameters: species or system BALB/c mice; conditions: mouse, in vivo
[5] = system: recombinant NIBRG-14 (A/Viet Nam/1194/2004) H5N1 virus; experiment: microbe, parasite or virus in culture; type: cell-based, avian H5N1 influenza virus; conditions: for EC50: Influenza A virus, H5N1, read-out: EC50 against avian H5N1 virus
[6] = system: NIBRG-14 (A/VietNam/1194/2004) H5N1; type: in vivo, BALB/c mice; conditions: for survival of H5N1 infected mice (in words): 12 μmol/kg/day intranasal, 10 LD50 NIBRG-14, FIG. 17A/17B
[7] = humans; cited from earlier work
IFN-γ = system: IFN-γ; parameters: species or system mice; conditions: mouse, in vivo
IL-6 = system: IL-6; parameters: species or system mice; conditions: mouse, in vivo
[8] = Sprague Dawley, rat
[9] = A/WSN/1933 (H1N1) virus, table data are ranges or single assay results, read-out: EC50 (nM), anti-influenza activity
[10] = Influenza A virus, MDCK, A/WSN/1933 (H1N1) virus, table data are ranges or single assay results, read-out: EC50 (nM), anti-influenza activity

neuraminidase of influenza A/WSN/1933 (H1N1) virus, sequence (P03470 whole entry, looked up): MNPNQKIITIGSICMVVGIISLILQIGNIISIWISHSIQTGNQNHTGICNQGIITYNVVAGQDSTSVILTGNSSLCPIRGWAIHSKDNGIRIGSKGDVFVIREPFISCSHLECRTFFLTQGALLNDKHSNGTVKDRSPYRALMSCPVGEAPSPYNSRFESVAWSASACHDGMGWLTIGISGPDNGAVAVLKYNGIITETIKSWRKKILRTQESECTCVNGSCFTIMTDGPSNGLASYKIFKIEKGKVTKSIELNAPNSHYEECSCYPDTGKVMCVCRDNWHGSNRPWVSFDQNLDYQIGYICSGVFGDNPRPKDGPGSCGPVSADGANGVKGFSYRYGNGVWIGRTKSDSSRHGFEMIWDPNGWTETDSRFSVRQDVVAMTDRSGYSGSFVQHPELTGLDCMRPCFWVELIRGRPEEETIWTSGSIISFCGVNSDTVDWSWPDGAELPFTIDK

3,4-(methylenedioxy)cinnamic acid [MCA, reference compound]
NA inhibitory activity (in words) [1]: did not exhibit any NA inhibitory activity | IC50 ([1]; read-out: IC50 (nM), influenza neuraminidase inhibition): > 100000 nM | mRNA encoding IL-6 [2]: dose-dependent decreases | mRNA encoding TNF-α [3]: dose-dependent decreases | EC50 (A/WSN/1933 (H1N1) virus; [9]): > 100000 nM

CC(C)(C)OC(=O)NCCCOC(=O)C=Cc1ccc(O)c(O)c1 [3-(tert-butoxyamido)propyl caffeate, reference compound]
anti-influenza activity (in words) (A/WSN/1933 (H1N1) virus): inactive

O=C(/C=C/c1ccc(O)c(O)c1)OCCCO [3-hydroxypropyl caffeate, reference compound]
anti-influenza activity (in words) (A/WSN/1933 (H1N1) virus): inactive

O=C(O)/C=C/c1ccc(O)c(O)c1 [CA, caffeic acid, reference compound]
NA inhibitory activity (in words) [1]: did not exhibit any NA inhibitory activity | survival of H1N1 infected mice (in words) [4]: all the mice died at day 12 | mRNA encoding IL-6 [2]: dose-dependent decreases | mRNA encoding TNF-α [3]: dose-dependent decreases | EC50 (A/WSN/1933 (H1N1) virus; [10]): > 100000 nM

O=C(O)c1ccc2ccccc2c1O [HNAP, 1-hydroxy-2-naphthoic acid, reference compound]
EC50 (A/WSN/1933 (H1N1) virus; [10]): > 100000 nM

Nc1ccc(O)c(C(=O)O)c1 [ME, mesalazine, reference compound]
NA inhibitory activity (in words) [1]: did not exhibit any NA inhibitory activity | mRNA encoding IL-6 [2]: dose-dependent decreases | mRNA encoding TNF-α [3]: dose-dependent decreases | EC50 (A/WSN/1933 (H1N1) virus; [10]): > 100000 nM

CC(=O)N[C@H]1[C@H]([C@H](O)[C@H](O)CO)OC(C(=O)O)=C[C@@H]1N=C(N)N [ZA, zanamivir, reference compound]
survival at day 14 / protection from virus-induced death [4]: 10% | survival of H1N1 infected mice (in words) [4]: all the mice died at day 12 | EC50 [5]: 680 nM | survival of H5N1 infected mice (in words) [6]: did not improve the survival rate | bioavailability [7]: ~5% | EC50 (A/WSN/1933 (H1N1) virus; [9]): 3.5 to 20.2 nM | EC50 (A/WSN/1933 (H1N1) virus; read-out: EC50 (nM), anti-influenza activity, A/WSN/1933 (H1N1) virus, table data are ranges or single assay results): 14 nM

CC(=O)NC1C(NC(=N)N)C=C(C(=O)OCCCOC(=O)C=Cc2ccc(O)c(O)c2)OC1C(O)C(O)CO (centres unmarked) [ZA-1-CA (9)]
IC50 [1]: 2850 nM | EC50 (A/WSN/1933 (H1N1) virus; [10]): 25 nM

CC(=O)NC1C(N=C(N)N)C=C(C(=O)OCCCOC(=O)c2ccc3ccccc3c2O)OC1C(O)C(O)CO (centres unmarked) [ZA-1-HNAP (12)]
IC50 [1]: 590 nM | EC50 (A/WSN/1933 (H1N1) virus; [10]): 48 nM

CC(=O)NC1C(NC(=N)N)C=C(C(=O)OCCCOC(=O)C=Cc2ccc3c(c2)OCO3)OC1C(O)C(O)CO (centres unmarked) [ZA-1-MCA (10)]
IC50 [1]: 3990 nM | EC50 (A/WSN/1933 (H1N1) virus; [10]): 28 nM

CC(=O)NC1C(NC(=N)N)C=C(C(=O)OCCCOC(=O)c2cc(N)ccc2O)OC1C(O)C(O)CO (centres unmarked) [ZA-1-ME (11)]
IC50 [1]: 996 nM | EC50 (A/WSN/1933 (H1N1) virus; [10]): 16 nM

CC(=O)NC1C(NC(=N)N)C=C(C(=O)O)OC1C(OC(=O)NCCCOC(=O)C=Cc1ccc(O)c(O)c1)C(O)CO (centres unmarked) [ZA-7-CA (1)]
IC50 [1]: 2.9 to 7.4 nM | level of IFN-γ in serum (IFN-γ): lower | protection of H1N1 virus infected mice [4]: greater protection than ZA, CA or ME | protection of mice from influenza virus infection [4]: did not show significant protection | survival of H1N1 infected mice (in words) [4]: all the mice died at day 12 except for those treated with conjugate 1; also recorded: all survived at day 14 | survival rate at day 14 [4]: 40% | mRNA encoding IL-6 [2]: dose-dependent decreases | potency relative to zanamivir against H5N1 [5]: about 13 fold | EC50 [5]: 50 nM | mRNA encoding TNF-α [3]: dose-dependent decreases | survival of H5N1 infected mice (in words) [6]: all survived | EC50 (A/WSN/1933 (H1N1) virus; [10]): 1.4 to 10.6 nM | level of IL-6 in serum (IL-6): lower | stability / enzymatic cleavage in plasma [8]: released a degradation product ZA-7-HP (6)

CC(=O)NC1C(NC(=N)N)C=C(C(=O)O)OC1C(OC(=O)NCCCNC(=O)C=Cc1ccc(O)c(O)c1)C(O)CO (centres unmarked) [ZA-7-CA-amide (7)]
IC50 [1]: 41.3 to 60.3 nM | survival at day 14 [4]: 50% | survival at day 14 / protection from virus-induced death [4]: 100% | survival rate of H1N1 infected mice (in words) [4]: did not improve the survival rate | survival rate of H5N1 infected mice (in words) ([6]; 1.2 μmol/kg/day intranasal, FIG. 17B): improved survival rate | survival of H5N1 infected mice (in words) [6]: greater potency | EC50 (A/WSN/1933 (H1N1) virus; [9]): 5.9 nM | EC50 (A/WSN/1933 (H1N1) virus; [10]): 5.1 nM

CC(=O)NC1C(NC(=N)N)C=C(C(=O)O)OC1C(OC(=O)NCCCOC(=O)c1ccc(O)c(O)c1)C(O)CO (centres unmarked) [ZA-7-DHBA (5)]
IC50 [1]: 2.9 nM | EC50 (A/WSN/1933 (H1N1) virus; [10]): 53 nM

CC(=O)NC1C(NC(=N)N)C=C(C(=O)O)OC1C(OC(=O)NCCCOC(=O)c1ccc2ccccc2c1O)C(O)CO (centres unmarked) [ZA-7-HNAP (4)]
IC50 [1]: 0.7 to 3.6 nM | EC50 (A/WSN/1933 (H1N1) virus; [10]): 50 to 168 nM

CC(=O)NC1C(NC(=N)N)C=C(C(=O)O)OC1C(OC(=O)NCCCNC(=O)c1ccc2ccccc2c1O)C(O)CO (centres unmarked) [ZA-7-HNAP-amide (8)]
IC50 [1]: 3.1 nM | EC50 (A/WSN/1933 (H1N1) virus; [10]): 6.6 nM

CC(=O)NC1C(NC(=N)N)C=C(C(=O)O)OC1C(OC(=O)NCCCO)C(O)CO (centres unmarked) [ZA-7-HP (6), 5-Acetylamino-6-[2,3-dihydroxy-1-(3-hydroxypropylcarbamoyloxy)propyl]-4-guanidino-5,6-dihydro-4H-pyran-2-carboxylic acid]
IC50 [1]: 11.7 to 19.8 nM | EC50 [5]: 820 nM

CC(=O)NC1C(NC(=N)N)C=C(C(=O)O)OC1C(OC(=O)NCCCOC(=O)C=Cc1ccc2c(c1)OCO2)C(O)CO (centres unmarked) [ZA-7-MCA (2)]
IC50 [1]: 5.4 to 7.9 nM

CC(=O)NC1C(NC(=N)N)C=C(C(=O)O)OC1C(OC(=O)NCCCOC(=O)c1cc(N)ccc1O)C(O)CO (centres unmarked) [ZA-7-ME (3)]
IC50 [1]: 8.6 to 56.3 nM | level of IFN-γ in serum (IFN-γ): lower | protection of H1N1 virus infected mice [4]: greater protection than ZA, CA or ME; also recorded: good activity | mRNA encoding IL-6 [2]: dose-dependent decreases | EC50 [5]: 430 nM | mRNA encoding TNF-α [3]: dose-dependent decreases | survival of H5N1 infected mice (in words) [6]: did not provide better protection effect than ZA | level of IL-6 in serum (IL-6): lower

CC(=O)NC1C(NC(=N)NC(=O)C(C)c2ccc(CC(C)C)cc2)C=C(C(=O)O)OC1C(O)C(O)CO (centres unmarked) [ZA-G-Ibu (47)]
IC50 [1]: 44 to 81 nM | EC50 (A/WSN/1933 (H1N1) virus; [10]): 18 to 20 nM

O=C(/C=C/c1ccc(O)c(O)c1)O[C@@H]1C[C@](O)(C(=O)O)C[C@@H](O)[C@H]1O [chlorogenic acid, reference compound]
anti-influenza activity (in words) (A/WSN/1933 (H1N1) virus): inactive

Source: patent publication US10130714B2 (priority 2012, dated 2018)
